According to PubChem BioAssay AID1963861 (Molecular Pharmacology Branch, DTP, NCI, 2024):

Test system: 885724-159-R-J1-PDC KRAS PDC multicell spheroid viability
Assay: Anticancer human tumor 885724-159-R-J1-PDC patient-derived pancreatic adenocarcinoma cell line growth inhibition [KRAS2]
Conditions: for IC50: curve of first compound; for viability, T/C: stronger effect = lower value
Description: Multicellular complex tumor spheroid response to RAS pathway inhibitors in combination with a targeted agents in patient-derived cell lines with oncogenic KRAS variants from multiple cancer types
A high-throughput screen of multi-cell type tumor spheroids was designed to identify active combinations of targeted small molecules and KRAS pathway inhibitors. Complex spheroids include a stromal component modeled by human endothelial cells (HUVEC) and fibroblasts modeled by human mesenchymal stem cells (MSCs). The concentration ranges selected for each drug and investigational agent were based upon clinically achievable concentrations if the clinical Cmax of the agent was known.
Compounds. The drugs and investigational agents: BI-3406 (NSC825286), BAY-293 (NSC824723), batoprotafib (TNO155; NSC825523), sotorasib (AMG 510; NSC818433), MRTX1257 (NSC819558), elimusertib (BAY 1895344; NSC800525), molibresib (GSK525762; NSC774829), temuterkib (LY3214996; NSC803410), venetoclax (NSC766270), alisertib (NSC759677), olaparib (NSC753686), talazoparib (NSC767125), erdafitinib (NSC781556), ipatasertib (NSC767898), cabozantinib (NSC761068), nintedanib (NSC756659), abemaciclib (NSC768073), docetaxel (NSC628503), trametinib (NSC758246), and sapanisertib (NSC764658) were obtained from the National Cancer Institute (NCI) Developmental Therapeutics Program Chemical Repository. The FDA-approved anticancer drug set is available from the Developmental Therapeutics Program. […] The stock solutions were prepared in dimethyl sulfoxide (DMSO, Sigma-Aldrich, St. Louis, MO, cat. D2650) at 800-fold the tested concentration and stored at -70 degrees C prior to their use. All drugs and investigational agents were tested over a range starting from a high concentration at or near the clinical Cmax and decreasing in half-log increments. If the clinical Cmax for an agent had not been determined, the highest concentration tested was 10 microM.
Cell Culture. All cells were maintained in an incubator at 37 degrees C and 5% CO2 with 95% humidity. The PDC lines were cultured according to standard operating procedures established by the NCI PDMR (https://pdmr.cancer.gov/sops/default.htm). Briefly, all PDCs were thawed and cultured in Matrigel-coated flasks prepared with a working solution of 1X Ham's F-12 nutrient mix, without supplementation (Invitrogen, Waltham, MA, cat. 11765054), 100 U/mL penicillin-streptomycin (Invitrogen, cat. 15140122), and 2.5% Matrigel (Corning Inc., Corning, NY, cat. 354248) for the first three passages. All PDCs were cultured in complete DMEM/F-12 media containing advanced DMEM/F-12 (Invitrogen, cat. 12634028), 4.9% defined fetal bovine serum, heat inactivated (HyClone Laboratories Inc., Logan, UT, cat. SH30070.03HI), 389 ng/mL hydrocortisone (Sigma-Aldrich, cat. H4001), 9.7 ng/mL human EGF recombinant protein (Invitrogen, cat. PHG0313), 23.4 microg/mL adenine (Sigma-Aldrich, cat. A2786), 97.3 U/mL penicillin-streptomycin (Invitrogen, cat. 15140122), 1.9 mM L-glutamine (Invitrogen, cat. 25030081), and 9.7 microM Y-27632 dihydrochloride (Tocris Bioscience, Bristol, United Kingdom, cat. 1254). The PDCs were cultured in complete DMEM/F12 media without 9.7 microM Y-27632 dihydrochloride for at least two passages prior to the screen. The established cell line HOP-62 was cultured in RPMI 1640 medium, HEPES (Invitrogen, cat. 22400105) with 10% defined fetal bovine serum (HyClone Laboratories Inc., cat. SH30070.03) and 2 mM L-glutamine (Invitrogen, cat. 25030081). The pooled donor HUVEC were cultured in endothelial cell growth medium 2 (PromoCell, Heidelberg, Germany, cat. C-22011) and the hMSC were cultured in mesenchymal stem cell growth medium 2 (PromoCell, cat. C-28009). For all experiments, HUVEC and hMSC were used at passages </=5, while the malignant cell lines were used at passages </=15. […]

[1] = second compound 0.1 µM, first compound 0.000316 µM
[2] = second compound 0.1 µM, first compound 0.001 µM
[3] = second compound 0.1 µM, first compound 0.00316 µM
[4] = second compound 0.1 µM, first compound 0.01 µM
[5] = second compound 0.1 µM, first compound 0.0316 µM
[6] = second compound 0.1 µM, first compound 0.1 µM
[7] = second compound 0.316 µM, first compound 0.000316 µM
[8] = second compound 0.316 µM, first compound 0.001 µM
[9] = second compound 0.316 µM, first compound 0.00316 µM
[10] = second compound 0.316 µM, first compound 0.01 µM
[11] = second compound 0.316 µM, first compound 0.0316 µM
[12] = second compound 0.316 µM, first compound 0.1 µM
[13] = second compound 1 µM, first compound 0.000316 µM
[14] = second compound 1 µM, first compound 0.001 µM
[15] = second compound 1 µM, first compound 0.00316 µM
[16] = second compound 1 µM, first compound 0.01 µM
[17] = second compound 1 µM, first compound 0.0316 µM
[18] = second compound 1 µM, first compound 0.1 µM
[19] = second compound 3.16 µM, first compound 0.000316 µM
[20] = second compound 3.16 µM, first compound 0.001 µM
[21] = second compound 3.16 µM, first compound 0.00316 µM
[22] = second compound 3.16 µM, first compound 0.01 µM
[23] = second compound 3.16 µM, first compound 0.0316 µM
[24] = second compound 3.16 µM, first compound 0.1 µM
[25] = second compound 10 µM, first compound 0.000316 µM
[26] = second compound 10 µM, first compound 0.001 µM
[27] = second compound 10 µM, first compound 0.00316 µM
[28] = second compound 10 µM, first compound 0.01 µM
[29] = second compound 10 µM, first compound 0.0316 µM
[30] = second compound 10 µM, first compound 0.1 µM
[31] = second compound 0.1 µM, first compound 0.316 µM
[32] = second compound 0.1 µM, first compound 1 µM
[33] = second compound 0.1 µM, first compound 3.16 µM
[34] = second compound 0.1 µM, first compound 10 µM
[35] = second compound 0.316 µM, first compound 0.316 µM
[36] = second compound 0.316 µM, first compound 1 µM
[37] = second compound 0.316 µM, first compound 3.16 µM
[38] = second compound 0.316 µM, first compound 10 µM
[39] = second compound 1 µM, first compound 0.316 µM
[40] = second compound 1 µM, first compound 1 µM
[41] = second compound 1 µM, first compound 3.16 µM
[42] = second compound 1 µM, first compound 10 µM
[43] = second compound 3.16 µM, first compound 0.316 µM
[44] = second compound 3.16 µM, first compound 1 µM
[45] = second compound 3.16 µM, first compound 3.16 µM
[46] = second compound 3.16 µM, first compound 10 µM
[47] = second compound 10 µM, first compound 0.316 µM
[48] = second compound 10 µM, first compound 1 µM
[49] = second compound 10 µM, first compound 3.16 µM
[50] = second compound 10 µM, first compound 10 µM
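Further: spheroids exposed to agents for 7 days before readout.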

| SMILES | IC50 (second compound 0.1 µM) [nM] | IC50 (second compound 0.316 µM) [nM] | IC50 (second compound 1 µM) [nM] | IC50 (second compound 3.16 µM) [nM] | IC50 (second compound 10 µM) [nM] | viability, T/C [1] [%] | viability, T/C [2] [%] | viability, T/C [3] [%] | viability, T/C [4] [%] | viability, T/C [5] [%] | viability, T/C [6] [%] | viability, T/C [7] [%] | viability, T/C [11] [%] | viability, T/C [12] [%] | viability, T/C [17] [%] | viability, T/C [18] [%] | viability, T/C [23] [%] | viability, T/C [24] [%] | viability, T/C [29] [%] | viability, T/C [30] [%] | further results |
| --- | --- | --- | --- | --- | --- | --- | --- | --- | --- | --- | --- | --- | --- | --- | --- | --- | --- | --- | --- | --- | --- |
| CC(C)n1nc(-c2ccc3oc(N)nc3c2)c2c(N)ncnc21 + C=CC(=O)N1CCN(c2nc(=O)n(-c3c(C)ccnc3C(C)C)c3nc(-c4c(O)cccc4F)c(F)cc23)C(C)C1 | 37 | 38 | 24 | 13.7 | 3.9 | 97.8 | 82.4 | 74.6 | 61 | 50.5 | 42.7 | 98.8 | 51.2 | 41.6 | 47.9 | 40.2 | 43.7 | 40.4 | 40.1 | 32.9 | viability, T/C [8]: 82.9%; viability, T/C [9]: 72.2%; viability, T/C [10]: 63.9%; viability, T/C [13]: 98.4%; viability, T/C [14]: 77.6%; viability, T/C [15]: 68.8%; viability, T/C [16]: 58.3%; viability, T/C [19]: 112%; viability, T/C [20]: 77.4%; viability, T/C [21]: 68.3%; viability, T/C [22]: 51.5%; viability, T/C [25]: 74.7%; viability, T/C [26]: 59%; viability, T/C [27]: 49.9%; viability, T/C [28]: 46.1% |
| CC1(C)CCC(CN2CCN(c3ccc(C(=O)NS(=O)(=O)c4ccc(NCC5CCOCC5)c([N+](=O)[O-])c4)c(Oc4cnc5[nH]ccc5c4)c3)CC2)=C(c2ccc(Cl)cc2)C1 + C=CC(=O)N1CCN(c2nc(=O)n(-c3c(C)ccnc3C(C)C)c3nc(-c4c(O)cccc4F)c(F)cc23)C(C)C1 | 7090 | 7140 | 5360 | 9700 | 5480 | – | – | – | – | 111 | 118 | – | 117 | 114 | 122 | 117 | 109 | 120 | 91.1 | 68.7 | viability, T/C [31]: 114%; viability, T/C [32]: 108%; viability, T/C [33]: 91.2%; viability, T/C [34]: 32.3%; viability, T/C [35]: 111%; viability, T/C [36]: 114%; viability, T/C [37]: 89.3%; viability, T/C [38]: 33.8%; viability, T/C [39]: 118%; viability, T/C [40]: 112%; viability, T/C [41]: 72.8%; viability, T/C [42]: 23.1%; viability, T/C [43]: 113%; viability, T/C [44]: 114%; viability, T/C [45]: 80.8%; viability, T/C [46]: 49.2%; viability, T/C [47]: 76.9%; viability, T/C [48]: 77.8%; viability, T/C [49]: 65.3%; viability, T/C [50]: 33% |
| COc1cc2nccc(Oc3ccc(NC(=O)C4(C(=O)Nc5ccc(F)cc5)CC4)cc3)c2cc1OC + C=CC(=O)N1CCN(c2nc(=O)n(-c3c(C)ccnc3C(C)C)c3nc(-c4c(O)cccc4F)c(F)cc23)C(C)C1 | > 10000 | > 10000 | > 10000 | > 10000 | 2400 | – | – | – | – | 123 | 125 | – | 124 | 117 | 118 | 122 | 117 | 122 | 75.6 | 72.2 | viability, T/C [31]: 142%; viability, T/C [32]: 113%; viability, T/C [33]: 81.4%; viability, T/C [34]: 75.6%; viability, T/C [35]: 117%; viability, T/C [36]: 126%; viability, T/C [37]: 90.4%; viability, T/C [38]: 77.7%; viability, T/C [39]: 114%; viability, T/C [40]: 126%; viability, T/C [41]: 86.4%; viability, T/C [42]: 77.6%; viability, T/C [43]: 123%; viability, T/C [44]: 106%; viability, T/C [45]: 78.6%; viability, T/C [46]: 77.7%; viability, T/C [47]: 62.3%; viability, T/C [48]: 86.2%; viability, T/C [49]: 35.8%; viability, T/C [50]: 48.9% |
| Cn1ncnc1[C@H]1c2n[nH]c(=O)c3cc(F)cc(c23)N[C@@H]1c1ccc(F)cc1 + C=CC(=O)N1CCN(c2nc(=O)n(-c3c(C)ccnc3C(C)C)c3nc(-c4c(O)cccc4F)c(F)cc23)C(C)C1 | > 100 | > 100 | > 100 | > 100 | > 100 | 105 | 107 | 103 | 110 | 111 | 92 | 118 | 108 | 94 | 104 | 96.8 | 108 | 105 | 82.2 | 78.4 | viability, T/C [8]: 115%; viability, T/C [9]: 113%; viability, T/C [10]: 113%; viability, T/C [13]: 111%; viability, T/C [14]: 106%; viability, T/C [15]: 117%; viability, T/C [16]: 107%; viability, T/C [19]: 106%; viability, T/C [20]: 108%; viability, T/C [21]: 106%; viability, T/C [22]: 105%; viability, T/C [25]: 89.3%; viability, T/C [26]: 97.4%; viability, T/C [27]: 93%; viability, T/C [28]: 86% |
